Test results published in PubChem BioAssay (NCI).
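Grown in 96-well plates, cells were treated for 48 hours with each compound at five concentrations. Insufficient inhibition: endpoint recorded as highest concentration tested. The concentration for 50% growth inhibition is given as GI50. The concentration for full growth arrest is given as TGI.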

Columns and labels:
Assay in all cases: NCI-60 cell line screen, 48 h
[1] = system: 786-0 renal
[2] = system: A498 renal
[3] = system: A549 NSCLC
[4] = system: ACHN renal
[5] = system: BT-549 breast
[6] = system: CAKI-1 renal
[7] = system: CCRF-CEM leukemia
[8] = system: COLO 205 colon
[9] = system: DU-145 prostate
[10] = system: EKVX NSCLC
[11] = system: HCC-2998 colon
[12] = system: HCT-116 colon
[13] = system: HCT-15 colon
[14] = system: HL-60(TB) leukemia
[15] = system: HOP-62 NSCLC
[16] = system: HOP-92 NSCLC
[17] = system: HS 578T breast
[18] = system: HT29 colon
[19] = system: IGROV1 ovarian
[20] = system: K-562 leukemia
[21] = system: KM12 colon
[22] = system: LOX IMVI melanoma
[23] = system: M14 melanoma
[24] = system: MALME-3M melanoma
[25] = system: MCF7 breast
[26] = system: MDA-MB-231 breast
[27] = system: MDA-MB-435
[28] = system: MOLT-4 leukemia
[29] = system: NCI-H226 lung
[30] = system: NCI-H460 lung
[31] = system: NCI-H522 lung
[32] = system: NCI/ADR-RES ovarian
[33] = system: OVCAR-3 ovarian
[34] = system: OVCAR-4 ovarian
[35] = system: OVCAR-5 ovarian
[36] = system: OVCAR-8 ovarian
[37] = system: PC-3 prostate
[38] = system: RPMI-8226 leukemia
[39] = system: RXF 393 renal
[40] = system: SF-268 CNS
[41] = system: SF-295 CNS
[42] = system: SF-539 CNS
[43] = system: SK-MEL-2 melanoma
[44] = system: SK-MEL-28 melanoma
[45] = system: SK-MEL-5 melanoma
[46] = system: SK-OV-3 ovarian
[47] = system: SN12C renal
[48] = system: SNB-19 CNS
[49] = system: SNB-75 CNS
[50] = system: SR leukemia
[51] = system: SW-620 colon
[52] = system: T-47D breast
[53] = system: TK-10 renal
[54] = system: U251 CNS
[55] = system: UACC-257 melanoma
[56] = system: UACC-62 melanoma
[57] = system: UO-31 renal

O=C(CSc1nc2ccccc2c(=O)n1-c1ccc(Cl)cc1)N/N=C/c1ccc(Oc2ccc(Cl)cc2)cc1
GI50 [1]: 2.51 µM | TGI [1]: 6.42 µM | GI50 [2]: 1.94 µM | TGI [2]: 4.35 µM | GI50 [3]: 3.25 µM | TGI [3]: 14 µM | GI50 [4]: 4.36 µM | TGI [4]: 15.2 µM | GI50 [5]: 3.28 µM | TGI [5]: 12.2 µM | GI50 [6]: 3.06 µM | TGI [6]: 12 µM | GI50 [7]: 3.09 µM | TGI [7]: 48.5 µM | GI50 [8]: 2.79 µM | TGI [8]: 8.74 µM | GI50 [9]: 3.52 µM | TGI [9]: 20.4 µM | GI50 [10]: 3.1 µM | TGI [10]: 13.9 µM | GI50 [11]: 1.92 µM | TGI [11]: 3.81 µM | GI50 [12]: 1.55 µM | TGI [12]: 3.74 µM | GI50 [13]: 2.41 µM | TGI [13]: 7.49 µM | GI50 [14]: 16 µM | TGI [14]: 37 µM | GI50 [15]: 1.69 µM | TGI [15]: 4.05 µM | GI50 [16]: 2.07 µM | TGI [16]: 5.62 µM | GI50 [17]: 2.17 µM | TGI [17]: 6.36 µM | GI50 [18]: 2.14 µM | TGI [18]: 11.1 µM | GI50 [19]: 1.51 µM | TGI [19]: 3.28 µM | GI50 [20]: 4.15 µM | TGI [20]: 20.2 µM | GI50 [21]: 2.04 µM | TGI [21]: 5 µM | GI50 [22]: 1.29 µM | TGI [22]: 2.59 µM | GI50 [23]: 1.58 µM | TGI [23]: 3.47 µM | GI50 [24]: 1.38 µM | TGI [24]: 2.77 µM | GI50 [25]: 2.01 µM | TGI [25]: 5.5 µM | GI50 [26]: 1.79 µM | TGI [26]: 3.9 µM | GI50 [27]: 1.93 µM | TGI [27]: 4.56 µM | GI50 [28]: 2.29 µM | TGI [28]: 9.23 µM | GI50 [29]: 2.46 µM | TGI [29]: 6.59 µM | GI50 [30]: 0.788 µM | TGI [30]: 2.6 µM | GI50 [31]: 2.34 µM | TGI [31]: 8.31 µM | GI50 [32]: 1.64 µM | TGI [32]: 3.56 µM | GI50 [33]: 2.75 µM | TGI [33]: 9.55 µM | GI50 [34]: 1.89 µM | TGI [34]: 4.57 µM | GI50 [35]: 2.27 µM | TGI [35]: 6.44 µM | GI50 [36]: 2.41 µM | TGI [36]: 6.56 µM | GI50 [37]: 2.58 µM | TGI [37]: 9.32 µM | GI50 [38]: 2.98 µM | TGI [38]: 15.8 µM | GI50 [39]: 1.7 µM | TGI [39]: 3.14 µM | GI50 [40]: 3.85 µM | TGI [40]: 23.9 µM | GI50 [41]: 3.61 µM | TGI [41]: 13.3 µM | GI50 [42]: 2.54 µM | TGI [42]: 6.32 µM | GI50 [43]: 2.86 µM | TGI [43]: 8.93 µM | GI50 [44]: 1.51 µM | TGI [44]: 3.01 µM | GI50 [45]: 1.75 µM | TGI [45]: 3.51 µM | GI50 [46]: 3.26 µM | TGI [46]: 11.9 µM | GI50 [47]: 1.74 µM | TGI [47]: 4.14 µM | GI50 [48]: 3.36 µM | TGI [48]: 12.7 µM | GI50 [49]: 3.99 µM | TGI [49]: 29.2 µM | GI50 [50]: 1.84 µM | TGI [50]: 6.86 µM | GI50 [51]: 1.81 µM | TGI [51]: 7.84 µM | GI50 [52]: 2.09 µM | TGI [52]: 5.76 µM | GI50 [53]: 5.97 µM | TGI [53]: 40.2 µM | GI50 [54]: 1.65 µM | TGI [54]: 3.69 µM | GI50 [55]: 4.62 µM | TGI [55]: 22.5 µM | GI50 [56]: 1.59 µM | TGI [56]: 3.18 µM | GI50 [57]: 7.47 µM | TGI [57]: 21.1 µM
